Data reported in the NIST ThermoML archive (doi:10.1021/je100353j).
Values joined by “and” are separate entries in the source; they are usually repeats but may differ in a detail not shown here. Equal entries are not always repeated. ± gives the expanded uncertainty stated by the source.

Tests used:
[1] = Liquid
[2] = xn = mol fraction of the nth substance listed; conditions: Liquid, x2 = 0

C1CCCCC1 [cyclohexane]
mass density ([1]; 293.15 K, 101.33 kPa): 778.8 ± 0.5 kg/m3 | mass density ([1]; 293.15 K, 5000 kPa): 782.8 ± 0.7 kg/m3 | mass density ([1]; 293.15 K, 10000 kPa): 786.6 ± 0.8 kg/m3 | mass density ([1]; 293.15 K, 20000 kPa): 793.9 ± 1.1 kg/m3 | mass density ([1]; 293.15 K, 30000 kPa): 801 ± 1.4 kg/m3 | mass density ([1]; 293.15 K, 40000 kPa): 807.8 ± 1.7 kg/m3 | mass density ([1]; 298.15 K, 101.33 kPa): 773.9 ± 0.6 kg/m3 | mass density ([1]; 298.15 K, 5000 kPa): 778.3 ± 0.7 kg/m3 | mass density ([1]; 298.15 K, 10000 kPa): 782.3 ± 0.9 kg/m3 | mass density ([1]; 298.15 K, 20000 kPa): 789.8 ± 1.1 kg/m3 | mass density ([1]; 298.15 K, 30000 kPa): 796.7 ± 1.4 kg/m3 | mass density ([1]; 298.15 K, 40000 kPa): 802.9 ± 1.7 kg/m3 | mass density ([1]; 303.15 K, 101.33 kPa): 769.3 ± 0.6 kg/m3 | mass density ([1]; 303.15 K, 5000 kPa): 773.6 ± 0.7 kg/m3 | mass density ([1]; 303.15 K, 10000 kPa): 777.8 ± 0.9 kg/m3 | mass density ([1]; 303.15 K, 20000 kPa): 785.7 ± 1.2 kg/m3 | mass density ([1]; 303.15 K, 30000 kPa): 792.8 ± 1.4 kg/m3 | mass density ([1]; 303.15 K, 40000 kPa): 799.2 ± 1.7 kg/m3 | mass density ([1]; 308.15 K, 101.33 kPa): 764.5 ± 0.6 kg/m3 | mass density ([1]; 308.15 K, 5000 kPa): 769 ± 0.7 kg/m3 | mass density ([1]; 308.15 K, 10000 kPa): 773.4 ± 0.9 kg/m3 | mass density ([1]; 308.15 K, 20000 kPa): 781.5 ± 1.2 kg/m3 | mass density ([1]; 308.15 K, 30000 kPa): 788.8 ± 1.5 kg/m3 | mass density ([1]; 308.15 K, 40000 kPa): 795.5 ± 1.7 kg/m3 | mass density ([1]; 313.15 K, 101.33 kPa): 759.7 ± 0.6 kg/m3 | mass density ([1]; 313.15 K, 5000 kPa): 764.5 ± 0.7 kg/m3 | mass density ([1]; 313.15 K, 10000 kPa): 768.9 ± 0.9 kg/m3 | mass density ([1]; 313.15 K, 20000 kPa): 777.4 ± 1.2 kg/m3 | mass density ([1]; 313.15 K, 30000 kPa): 784.8 ± 1.5 kg/m3 | mass density ([1]; 313.15 K, 40000 kPa): 791.8 ± 1.8 kg/m3

C1CCCCC1 [cyclohexane] + COC(=O)OC
mass density ([2]; 293.15 K, 100 kPa): 778.8 ± 0.5 kg/m3 | mass density ([2]; 293.15 K, 5000 kPa): 782.8 ± 0.7 kg/m3 | mass density ([2]; 293.15 K, 10000 kPa): 786.6 ± 0.8 kg/m3 | mass density ([2]; 293.15 K, 20000 kPa): 793.9 ± 1.1 kg/m3 | mass density ([2]; 293.15 K, 30000 kPa): 801 ± 1.4 kg/m3 | mass density ([2]; 293.15 K, 40000 kPa): 807.8 ± 1.7 kg/m3 | mass density ([2]; 298.15 K, 100 kPa): 773.9 ± 0.6 kg/m3 | mass density ([2]; 298.15 K, 5000 kPa): 778.3 ± 0.7 kg/m3 | mass density ([2]; 298.15 K, 10000 kPa): 782.3 ± 0.9 kg/m3 | mass density ([2]; 298.15 K, 20000 kPa): 789.8 ± 1.1 kg/m3 | mass density ([2]; 298.15 K, 30000 kPa): 796.7 ± 1.4 kg/m3 | mass density ([2]; 298.15 K, 40000 kPa): 802.9 ± 1.7 kg/m3 | mass density ([2]; 303.15 K, 100 kPa): 769.3 ± 0.6 kg/m3 | mass density ([2]; 303.15 K, 5000 kPa): 773.6 ± 0.7 kg/m3 | mass density ([2]; 303.15 K, 10000 kPa): 777.8 ± 0.9 kg/m3 | mass density ([2]; 303.15 K, 20000 kPa): 785.7 ± 1.2 kg/m3 | mass density ([2]; 303.15 K, 30000 kPa): 792.8 ± 1.4 kg/m3 | mass density ([2]; 303.15 K, 40000 kPa): 799.2 ± 1.7 kg/m3 | mass density ([2]; 308.15 K, 100 kPa): 764.5 ± 0.6 kg/m3 | mass density ([2]; 308.15 K, 5000 kPa): 769 ± 0.7 kg/m3 | mass density ([2]; 308.15 K, 10000 kPa): 773.4 ± 0.9 kg/m3 | mass density ([2]; 308.15 K, 20000 kPa): 781.5 ± 1.2 kg/m3 | mass density ([2]; 308.15 K, 30000 kPa): 788.8 ± 1.5 kg/m3 | mass density ([2]; 308.15 K, 40000 kPa): 795.5 ± 1.7 kg/m3 | mass density ([2]; 313.15 K, 100 kPa): 759.7 ± 0.6 kg/m3 | mass density ([2]; 313.15 K, 5000 kPa): 764.5 ± 0.7 kg/m3 | mass density ([2]; 313.15 K, 10000 kPa): 768.9 ± 0.9 kg/m3 | mass density ([2]; 313.15 K, 20000 kPa): 777.4 ± 1.2 kg/m3 | mass density ([2]; 313.15 K, 30000 kPa): 784.8 ± 1.5 kg/m3 | mass density ([2]; 313.15 K, 40000 kPa): 791.8 ± 1.8 kg/m3

COC(=O)OC [dimethyl carbonate]
mass density ([1]; 293.15 K, 101.33 kPa): 1069.8 ± 0.4 kg/m3 | mass density ([1]; 293.15 K, 5000 kPa): 1074.4 ± 0.5 kg/m3 | mass density ([1]; 293.15 K, 10000 kPa): 1078.6 ± 0.5 kg/m3 | mass density ([1]; 293.15 K, 20000 kPa): 1086.9 ± 0.6 kg/m3 | mass density ([1]; 293.15 K, 30000 kPa): 1094.5 ± 0.8 kg/m3 | mass density ([1]; 293.15 K, 40000 kPa): 1101.9 ± 1 kg/m3 | mass density ([1]; 298.15 K, 101.33 kPa): 1063.2 ± 0.4 kg/m3 | mass density ([1]; 298.15 K, 5000 kPa): 1068 ± 0.5 kg/m3 | mass density ([1]; 298.15 K, 10000 kPa): 1072.4 ± 0.5 kg/m3 | mass density ([1]; 298.15 K, 20000 kPa): 1080.8 ± 0.6 kg/m3 | mass density ([1]; 298.15 K, 30000 kPa): 1088.7 ± 0.8 kg/m3 | mass density ([1]; 298.15 K, 40000 kPa): 1096.2 ± 1 kg/m3 | mass density ([1]; 303.15 K, 101.33 kPa): 1056.5 ± 0.4 kg/m3 | mass density ([1]; 303.15 K, 5000 kPa): 1061.3 ± 0.5 kg/m3 | mass density ([1]; 303.15 K, 10000 kPa): 1066 ± 0.5 kg/m3 and 1065 ± 0.5 kg/m3 | mass density ([1]; 303.15 K, 20000 kPa): 1074.7 ± 0.6 kg/m3 | mass density ([1]; 303.15 K, 30000 kPa): 1082.9 ± 0.7 kg/m3 | mass density ([1]; 303.15 K, 40000 kPa): 1090.4 ± 0.9 kg/m3 | mass density ([1]; 308.15 K, 101.33 kPa): 1049.8 ± 0.4 kg/m3 | mass density ([1]; 308.15 K, 5000 kPa): 1054.6 ± 0.4 kg/m3 | mass density ([1]; 308.15 K, 10000 kPa): 1059.4 ± 0.5 kg/m3 | mass density ([1]; 308.15 K, 20000 kPa): 1068.5 ± 0.6 kg/m3 | mass density ([1]; 308.15 K, 30000 kPa): 1077 ± 0.7 kg/m3 | mass density ([1]; 308.15 K, 40000 kPa): 1084.8 ± 0.9 kg/m3 | mass density ([1]; 313.15 K, 101.33 kPa): 1043 ± 0.4 kg/m3 | mass density ([1]; 313.15 K, 5000 kPa): 1048.1 ± 0.4 kg/m3 | mass density ([1]; 313.15 K, 10000 kPa): 1053 ± 0.5 kg/m3 | mass density ([1]; 313.15 K, 20000 kPa): 1062.3 ± 0.5 kg/m3 | mass density ([1]; 313.15 K, 30000 kPa): 1071 ± 0.7 kg/m3 | mass density ([1]; 313.15 K, 40000 kPa): 1079 ± 0.8 kg/m3
